Test results taken from patent publication US20220411478A1, “CD70 TARGETED CHIMERIC ANTIGEN RECEPTOR (CAR) T CELLS AND USES THEREOF” (priority 2019, published 2022).

What was measured:
[1] = test system: OCI-AML3 and Molm13 AML lines; experiment: CD70 surface expression after incubation with AZA (flow cytometry), AML lines; type: cell-based, human
Description: (§1) The following antibody clones targeting their respective antigens were used for flow cytometric analysis where indicated: CD70 (113-16, Biolegend), PeCy7 isotype (MOPC-21, Biolegend), CD69 (FN50, Biolegend), CD107a (H4A3, Biolegend), mouse TER-119 (TER-119, Biolegend), mouse NK-1.1 (PK136, Biolegend), mouse Ly-6G/Ly-6C (Gr-1, Biolegend), mouse CD11b (Biolegend). In general, cells were stained for fifteen minutes in the dark at 4 degrees Celsius and washed in PBS with 2% FBS. When used, DAPI was added to establish live versus dead separation. Trucount tubes (BD Biosciences, 340334) were used for murine blood CAR quantification according to kit instructions. Quantum Simply Cellular beads (Bangs Laboratories, 815) were used to quantify CD70 surface expression.

Molm13 [2] = experiment: CD70 and CD33 expression on AML in vivo after AZA (femur aspirates, flow cytometry); set-up: species or system NSG mice; conditions: five days of AZA IP
Description: as §1
4.3.1 was used for analysis.
Femur aspirates were analyzed for tumor cells and their CD70 expression via flow cytometry (FIG. 4C). CD70 expression level was compared to isotype controls for each mouse.

CD70 CAR-T cells [3] = experiment: AZA exposure of CD70 CAR-T cells: cell number and viability; type: cell-based, human; conditions: increasing concentrations of AZA, 24 hours, IL-2
CD70 CAR-T cells [4] = experiment: Plate bound antigen activation assay after AZA incubation; type: cell-based, human; conditions: 100 μM AZA (supratherapeutic), 24 hours, washed, plate-bound CD70 overnight
Experimental: After washing in PBS, trD27 or CAR T cells were added for 12 hours followed by flow cytometric staining for CD69.

Molm13 [5] = experiment: Real-time cytotoxicity assay (impedance) after AZA incubation of CAR-T cells; type: cell-based, human; conditions: CAR-T cells treated in 1 μM AZA, after 96 hours
Experimental: Cell index was recorded as a measure of impedance using the xCELLigence RTCA SP instrument (ACEA biosciences). […] 125,000 Molm13 cells per well were then plated for 28 hours followed by administration of 125,000 CAR-T cells. Cell index was tracked for 96 hours.

[6] = test system: solid tumor cell lines as well as primary AML blasts; conditions: hypomethylation of the CD70 promoter; cited from earlier work
Molm13 [7] = experiment: Aggressive Molm13 AML xenograft, azacitidine with CD70 CAR-T cells
Experimental: For IHC, murine femurs were washed in PBS and then incubated overnight in 4% paraformaldehyde (PF Thermo-Fisher Scientific AAJ19943K2), followed by an overnight incubation in Cal-ex decalcifier (Fisher Scientific, CS510-1D) and then storage in 70% ethanol until staining. Antibody clones for IHC included the following: CD3 (2GV6, Roche) and CD45 (D9M81, Cell Signaling Technology).
NOD-SCID-γ chain−/− (NSG) (Jackson Laboratories) mice were engrafted with Molm13 cell lines as described for the individual experiments. Mice were maintained at the MGH Center for Cancer Research and all care and conducted experiments were carried out using protocols approved by the Massachusetts General Hospital Institutional Animal Care and Use Committee. […] Cryopreserved CD70 CAR T cells or untransduced T cells were injected intravenously via tail vein at the indicated time points. Tumor burden was monitored via bioluminescence following intraperitoneal injection of D-luciferin substrate solution. AMI spectral imaging was used to perform the image capture and IDL software v. 4.3.1 was used for analysis. Animals were euthanized per the experimental protocol or when they met a priori defined endpoints by IACUC.
A complementary technique was used to verify tumor burden and CAR-T cell expansion. […] To determine if these were cancer cells or infiltrating CAR-T cells, human CD3 was stained.

CD70 CAR-T cells [8] = experiment: T-cell subset and activation/exhaustion markers under AZA, co-culture with Molm13; conditions: highest concentrations of AZA

Nc1ncn([C@@H]2O[C@H](CO)[C@@H](O)[C@H]2O)c(=O)n1 [AZA, azacitidine]
CD70 expression ([1]; 10 μM AZA, FIG. 15, cell line not named): bulk increase in CD70 expression | CD70 expression ([1]; incubated with AZA for 20 and 44 hours): increase in CD70 expression at higher concentrations | increase in myeloid marker CD33 (Molm13 [2]): not observed | number of CAR-T cells surviving (CD70 CAR-T cells [3]): same number of CAR-T cells survived | viability of CAR-T cells (CD70 CAR-T cells [3]): preserved across all conditions | CAR-T cell activation (CD69) compared to control (CD70 CAR-T cells [4]): significant reduction in activation | CAR-T cytotoxicity vs control (Molm13 [5]): no statistically significant difference from control | CD70 surface expression [6]: increased CD70 surface expression | treatment effect / tumor control (BLI) (Molm13 [7]; AZA 2.5 mg/kg/day IP day +18 for 5 days, T cells day +22): slight treatment effect | human CD45 staining of bones (immunohistochemistry) (Molm13 [7]; femurs at sacrifice): abundant human CD45 staining | PD-1 (CD70 CAR-T cells [8]): decreases | Tim 3 (CD70 CAR-T cells [8]): decreases | effector memory phenotypes (CD70 CAR-T cells [8]): increase in effector memory phenotypes
